Measured values: publication PMC7515946, “Targeting of Perforin Inhibitor into the Brain Parenchyma Via a Prodrug Approach Can Decrease Oxidative Stress and Neuroinflammation and Improve Cell Survival” (Molecular Neurobiology, 2020)
Several values for one entry are separate records, joined by “and”; a condition that tells them apart may be missing. Equal entries are not always repeated. Entries after “also recorded” stand apart in the source; their conditions may differ.

Key:
[1] = target: T1, LAT1 (Mus musculus, UniProt Q9Z127); assay: Ability to bind to LAT1: inhibition of [14C]-L-leucine uptake in astrocytes; assay type: cell-based; conditions: mouse primary astrocytes, 0.76 μM [14C]-L-leucine, 5 min, 37 °C
T1 construct: endogenous in cells; host or cells: mouse primary astrocytes (C57BL/6JOlaHsd), cortex and hippocampi
T1 sequence (Q9Z127 whole entry): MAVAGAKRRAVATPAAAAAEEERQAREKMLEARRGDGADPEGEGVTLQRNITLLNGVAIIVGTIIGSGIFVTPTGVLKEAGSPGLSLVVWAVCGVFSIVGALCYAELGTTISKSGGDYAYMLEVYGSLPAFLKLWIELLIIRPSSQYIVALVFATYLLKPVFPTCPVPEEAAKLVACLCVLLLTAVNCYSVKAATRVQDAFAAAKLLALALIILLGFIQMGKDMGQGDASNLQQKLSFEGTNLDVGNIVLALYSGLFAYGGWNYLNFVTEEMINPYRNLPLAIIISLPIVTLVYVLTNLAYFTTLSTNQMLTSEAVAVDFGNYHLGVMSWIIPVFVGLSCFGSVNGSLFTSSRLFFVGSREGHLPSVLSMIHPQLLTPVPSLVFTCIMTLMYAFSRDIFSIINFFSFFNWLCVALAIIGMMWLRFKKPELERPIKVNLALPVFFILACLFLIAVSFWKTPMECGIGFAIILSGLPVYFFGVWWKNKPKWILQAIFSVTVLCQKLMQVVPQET
T1 sequence (P10852 whole entry partner): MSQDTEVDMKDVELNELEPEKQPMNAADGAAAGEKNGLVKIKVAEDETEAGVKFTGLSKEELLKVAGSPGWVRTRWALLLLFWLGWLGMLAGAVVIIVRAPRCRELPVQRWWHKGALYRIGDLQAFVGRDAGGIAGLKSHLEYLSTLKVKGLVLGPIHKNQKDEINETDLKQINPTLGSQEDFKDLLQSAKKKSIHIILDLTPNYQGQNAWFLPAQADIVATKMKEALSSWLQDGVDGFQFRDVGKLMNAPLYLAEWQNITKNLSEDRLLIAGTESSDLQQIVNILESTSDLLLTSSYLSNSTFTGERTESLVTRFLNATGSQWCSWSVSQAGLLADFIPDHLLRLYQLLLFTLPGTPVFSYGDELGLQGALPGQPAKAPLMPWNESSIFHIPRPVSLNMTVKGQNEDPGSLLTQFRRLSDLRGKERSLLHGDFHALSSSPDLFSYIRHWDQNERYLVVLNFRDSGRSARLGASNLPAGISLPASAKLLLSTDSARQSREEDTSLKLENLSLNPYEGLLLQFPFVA
Experimental: For the transporter-binding studies, the astrocytes were seeded on 24-well plates with a density of 10 × 10^4 cells/well 3 days before the experiments. After removal of the culture medium, the cells were carefully washed with pre-warmed HBSS (Hank’s balanced salt solution) containing choline chloride (125 mM), KCl (4.8 mM), MgSO4 (1.2 mM), KH2PO4 (1.2 mM), CaCl2 (1.3 mM), glucose (5.6 mM), and HEPES (25 mM) adjusted to pH 7.4 with 1 M NaOH. The cells were pre-incubated with 500 μL of pre-warmed HBSS at 37 °C for 5 min before the experiments. To study the ability of studied compounds to inhibit the uptake of a known LAT1 substrate, the cells were incubated at 37 °C for 5 min with an uptake buffer (HBSS, 250 μL) containing 0.76 μM (0.25 mCi/mL or […]) of [^14C]-L-leucine (PerkinElmer, Waltham, MA, USA) and 0.1–1000 μM of studied compound (or HBSS as blank). After incubation, the uptake was stopped by adding 500 μL of ice-cold HBSS, and the cells were washed two times with ice-cold HBSS (2 × 500 μL). The cells were then lysed with 500 μL of NaOH (0.1 M) for 60 min and the lysate was mixed with 3.5 mL of Emulsifier-Safe cocktail (Ultima Gold, PerkinElmer, Waltham, MA, USA). The radioactivity in the cells was measured by liquid scintillation counting (MicroBeta^2 counter, PerkinElmer Waltham, MA, USA). Half of the maximum inhibitory concentration (IC50) values were calculated by nonlinear regression analysis (fitting the curve to log (concentration) vs. remaining normalized viability).

[2] = system: MCF-7 human breast adenocarcinoma cells; assay: Cell viability of MCF-7 cells with cisplatin co-treatment (resazurin); assay type: cell-based; conditions: 10–400 μM together with 100 μM cisplatin, 72 h
[3] = system: caspase-3/-7; assay: Caspase-3/-7 in brain of LPS-induced neuroinflammation mice; assay type: in vivo, mouse; conditions: for Brain caspase-3/-7 amounts, preventative treatment: 30 μmol/kg for 4 days together with LPS 250 μg/kg for 3 days; for Brain caspase-3/-7 amounts, preventative treatment / Brain caspase-3/-7 amounts, curative treatment: relative to control; for Brain caspase-3/-7 amounts, curative treatment: 30 μmol/kg on days 3 and 4, LPS 250 μg/kg for 3 days
Experimental: Adult male C57BL/6JOlaHsd mice (Jackson Laboratories, Bar Harbor, ME, USA) were supplied by Envigo (Venray, Netherlands). Mice were housed in stainless steel cages on a 12-h light (07:00–19:00) and 12-h dark (19:00–07:00) cycle at an ambient temperature of 22 ± 1 °C with a relative humidity of 50–60%. All experiments were carried out during the light phase. Tap water and food pellets (Lactamin R36; Lactamin AB, Södertälje, Sweden) were available ad libitum. Neuroinflammation was induced by the treatment with LPS 250 μg/kg i.p once per day for 3 consequent days followed by decapitation on the 4th day. The animals were allocated to one of four treatment groups (n = 6 per group): (1) LPS-treated mice, (2) mice treated with LPS and the studied compound (30 μmol/kg; i.v.) for 3 days and 120 min before the decapitation on the 4th day (preventative efficacy), (3) mice treated with LPS for 3 days and with the studied compound (30 μmol/kg; i.v.) only for the last 2 days, and (4) control mice treated with 0.9% NaCl solution i.p. once per day for 3 days. After decapitation, mouse blood and brain samples were collected. […] The plasma layer was centrifuged again at 12,000 × g to remove the platelets. Plasma was stored at − 80 °C until analysis. The brains were snap-frozen in liquid nitrogen and stored at − 80 °C until analysis.
The effects of the compounds on the enzyme activity of caspase-3 and caspase-7 were evaluated from the snap-frozen mouse brain. Pieces of tissues (n = 3) were homogenized in 50 mM Tris–HCl (pH 7.4) 1:10 (w/v) with a bead mill homogenizer. […] The enzyme activity was measured with an Apo-ONE Homogenous Caspase-3/7 Assay kit (Promega Corporation, Madison, WI, USA) according to the manufacturer’s instruction. The assay was performed on 96-well plates, each sample having 3 replicates. Each of the sample wells contained 100 μL of the previously collected supernatant and 100 μL of the prepared Apo-ONE reagent. The blank measurement was carried out with the homogenization buffer and Apo-ONE reagent. Once all the samples and reagents were pipetted in the wells, the plate was carefully shaken for 30 s and left for incubation in dark at room temperature. The fluorescence was measured after the incubation with an EnVision 2104 Multilabel Reader (PerkinElmer, Waltham, MA, USA), with λex 499 nm and λem 521 nm. The measurement was repeated on multiple time points between 0.5 and 24 h.

[4] = target: T2, acetylcholinesterase (AChE) (Mus musculus, UniProt P21836); assay: biochemical; conditions: for IC50: mouse brain S9 fraction, acetylthiocholine 1 mM, 30 min endpoint
T2 construct: mouse brain S9 fraction was prepared by homogenizing freshly collected mouse brain; from tissue; host or cells: mouse brain S9 fraction (9000 x g supernatant)
T2 sequence (P21836 32-614): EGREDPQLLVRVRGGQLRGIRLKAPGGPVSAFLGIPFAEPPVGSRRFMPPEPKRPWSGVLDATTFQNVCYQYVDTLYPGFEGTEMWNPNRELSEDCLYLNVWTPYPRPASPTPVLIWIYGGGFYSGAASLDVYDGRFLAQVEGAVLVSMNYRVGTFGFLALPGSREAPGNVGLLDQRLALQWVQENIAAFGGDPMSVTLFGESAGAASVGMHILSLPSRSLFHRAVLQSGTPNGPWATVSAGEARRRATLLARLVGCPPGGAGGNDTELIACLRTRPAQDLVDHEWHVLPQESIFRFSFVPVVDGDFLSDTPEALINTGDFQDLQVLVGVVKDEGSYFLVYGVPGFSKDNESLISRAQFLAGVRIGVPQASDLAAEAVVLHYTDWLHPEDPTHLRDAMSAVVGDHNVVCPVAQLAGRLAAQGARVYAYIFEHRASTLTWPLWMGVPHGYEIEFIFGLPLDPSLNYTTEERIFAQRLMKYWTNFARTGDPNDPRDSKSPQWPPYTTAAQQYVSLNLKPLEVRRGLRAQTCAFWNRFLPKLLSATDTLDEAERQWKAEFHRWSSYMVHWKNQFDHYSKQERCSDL
Experimental: (§1) Briefly, mouse brain S9 fraction was prepared by homogenizing freshly collected mouse brain with 50 mM Tris-buffered saline (TBS) (pH 7.4) (1:4 w/v), centrifuging the homogenate at 9000 × g for 20 min at 4 °C and collecting the supernatant. The supernatant was then diluted 1:10 with phosphate buffer (100 mM; pH 7.0) and mixed with Ellman’s reagent (DTNB; 1 mM) and studied compounds in DMSO (DMSO concentration was less than 0.5%) on a 96-well plate as 3 parallel assays.
According to the Hanes–Woolf plots, the ratio of initial substrate concentration to the reaction velocity ([S]/v) was plotted against the substrate concentration (μM).

[5] = target: T3, butyrylcholinesterase (BChE) (Mus musculus, UniProt Q03311); assay type: biochemical; conditions: mouse brain S9 fraction, butyrylthiocholine 1 mM, 30 min endpoint
T3 construct: mouse brain S9 fraction was prepared by homogenizing freshly collected mouse brain; from tissue; host or cells: mouse brain S9 fraction (9000 x g supernatant)
T3 sequence (Q03311 30-603): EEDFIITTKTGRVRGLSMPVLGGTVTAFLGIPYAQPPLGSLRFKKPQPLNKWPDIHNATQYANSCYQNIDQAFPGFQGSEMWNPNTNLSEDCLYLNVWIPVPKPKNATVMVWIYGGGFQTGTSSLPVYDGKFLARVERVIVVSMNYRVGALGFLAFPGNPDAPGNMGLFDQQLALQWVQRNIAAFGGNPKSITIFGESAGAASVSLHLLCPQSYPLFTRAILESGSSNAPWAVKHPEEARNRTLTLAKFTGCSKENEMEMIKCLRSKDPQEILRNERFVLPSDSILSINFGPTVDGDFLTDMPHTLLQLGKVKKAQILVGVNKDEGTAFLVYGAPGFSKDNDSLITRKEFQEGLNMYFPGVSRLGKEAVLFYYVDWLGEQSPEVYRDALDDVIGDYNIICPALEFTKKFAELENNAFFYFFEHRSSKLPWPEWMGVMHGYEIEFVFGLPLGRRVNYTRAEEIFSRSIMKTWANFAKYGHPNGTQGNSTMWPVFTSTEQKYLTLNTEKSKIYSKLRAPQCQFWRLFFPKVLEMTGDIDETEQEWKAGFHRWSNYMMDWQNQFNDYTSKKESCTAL
Experimental: as §1

| Compound | IC50 [1] | Reversal of cisplatin-induced effects on MCF-7 cell viability [2] | Brain caspase-3/-7 amounts, preventative treatment [3] | Brain caspase-3/-7 amounts, curative treatment [3] | Brain caspase-3/-7 levels after prodrug treatment ([3]; LPS-induced mice, LPS level given as 117%) | Reduction of brain caspase-3/-7 levels ([3]; as stated in the discussion (from 117 to 72–74%)) | Type of AChE inhibition ([4]; Hanes–Woolf plot) | Vmax of AChE reaction in presence of inhibitor ([4]; mouse brain S9, acetylthiocholine, PFI-PD (12 μM), without inhibitor 2.21 ± 0.01) | IC50 [4] | BChE IC50 value [5] | IC50 in astrocytes (inhibition of [14C]-L-leucine uptake) [1] |
| --- | --- | --- | --- | --- | --- | --- | --- | --- | --- | --- | --- |
| N[C@H](Cc1cccc(C(=O)OCc2ccc(-c3ccc(-c4ccc5c(c4)COC5=O)s3)cc2)c1)C(=O)O [PFI-PD] | 4 µM and 3.5 µM | able to revert the cisplatin-induced effects | 68% | 63% | 72–74% | over 40% | mixed-type | 2.17 nmol/min/mg protein and 2.17 ± 0.02 nmol/min/mg protein | 8 µM and 8.15 µM | No inhibition | – |
| O=C1OCc2cc(-c3ccc(-c4ccc(CO)cc4)s3)ccc21 [PFI] | – | not able to revert the cisplatin-induced effects | 156% | 105% | – | – | – | – | 12 µM and 12.3 µM | No inhibition | did not exhibit any interaction with LAT1; also recorded: No inhibition |
